Test results taken from patent publication US20190330189A1, “ANTIBACTERIAL COMPOUNDS” (Janssen Sciences Ireland UC, priority 2015, published 2019).
Converted amounts (≈) assume the structure as drawn. Like-named read-outs stand apart in the source and are kept apart here.

What was measured:
[1] = test system: Mycobacterium tuberculosis strain H37Rv; assay: Test 1: MIC determination, resazurin fluorescence, M. tuberculosis H37Rv; assay type: cell-based; settings: Mycobacterium tuberculosis, H37RV
[2] = test system: Mycobacterium tuberculosis strain EH 4.0 (361.269); assay: Test 4: MIC determination, resazurin fluorescence, strain EH 4.0; assay type: cell-based; settings: Mycobacterium tuberculosis, read-out: pIC50, Test 4, M. tuberculosis strain EH 4.0 (361.269) (converted)
How it was run: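 M. tuberculosis EH 4.0 (361.269) from stationary-phase culture, ~5×10^5 CFU/well in 7H9 medium with compound dilutions. Incubated 7 days at 37 °C, then resazurin added; MIC from fluorescence.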

[3] = test system: replicating and non-replicating bacteria; settings: cited from earlier work
[4] = test system: M. tuberculosis H37Rv; settings: strain M. tuberculosis H37Rv, inside macrophages; cited from earlier work
[5] = Test 1, M. tuberculosis H37Rv, first test, read-out: pIC50 (converted)
[6] = Test 1, repeated (2nd) test, read-out: pIC50 * (converted)
[7] = Test 1, repeated (3rd) test, read-out: pIC50 ** (converted)

SMILES | melting point [°C] | IC50 [2] [nM] | other results
CCc1nc2ccc(Cl)cn2c1C(=O)NCc1ccc(N2CC3(C2)CN(c2ccc(OC(F)(F)F)cc2)C3)cc1 [Compound 4] | 184.57 | 5.01 | IC50 [1, 5]: 120 nM
CCc1nc2ncc(Cl)cn2c1C(=O)NCc1ccc(N2CC3(C2)CN(c2ccc(OC(F)(F)F)cc2)C3)cc1 [Compound 5] | 242.43 | 31.6 | IC50 [1, 5]: 69.2 nM; IC50 [1, 6]: 74.1 nM; IC50 [1, 7]: 74.1 nM
CCc1nc2sc(C)cn2c1C(=O)NCc1ccc(N2CC3(CCC3)C2)cc1 [Compound 12] | 300 | 31.6 | IC50 [1, 5]: 129 nM; IC50 [1, 6]: 70.8 nM; IC50 [1, 7]: 107 nM
Cc1nn2ccccc2c1C(=O)NCc1ccc(C2CC3(C2)CN(c2ccc(OC(F)(F)F)cc2)C3)cc1 [Compound 141] | 158.48 | 31.6 | 
Cc1nn2ccccc2c1C(=O)NCc1ccc(N2CC3(C2)CN(c2ccc(OC(F)(F)F)cc2)C3)cc1 [Compound 142] | 193.19 | 126 | 
Cc1nn2ccccc2c1C(=O)NCc1ccc(N2CC3(CN(F)C3)C2)cc1 [Compound 143] | 130.31 | 398 | 
CCc1nn2ccccc2c1C(=O)NCc1ccc(N2CC3(C2)CN(c2ccc(OC(F)(F)F)cc2)C3)cc1 [Compound 144] | 135.8 | 79.4 | 
CCc1nn2c(Cl)cccc2c1C(=O)NCc1ccc(C2CC3(C2)CN(c2ccc(OC(F)(F)F)cc2)C3)cc1 [Compound 146] | 119.23 | 316 | 
CCc1nn2c(OC)cccc2c1C(=O)NCc1ccc(C2CC3(C2)CN(c2ccc(OC(F)(F)F)cc2)C3)cc1 [Compound 147] | 151.74 | 1260 | 
CCc1nc2ncc(Cl)cn2c1C(=O)NCc1ccc(N2CC3(C2)CC(F)(F)C3)cc1 [Compound 148] | 158.14 | 15.8 | 
CCc1nc2ncc(Cl)cn2c1C(=O)NCc1ccc(N2CC3(CC(Oc4ccc(F)cc4)C3)C2)cc1 [Compound 152] | 350 | 15.8 | 
CCc1nc2ncc(Cl)cn2c1C(=O)NCc1ccc(N2CCC3(CC2)CC(OC(F)(F)F)C3)cc1 [Compound 153] | 150.61 | 2 | 
CCc1nc2c(F)cccn2c1C(=O)NCc1ccc(C2CC3(C2)CN(c2ccc(OC(F)(F)F)cc2)C3)cc1 [Compound 157] | 144.55 | 7940 | 
CCc1nc2ccc(Cl)cn2c1C(=O)NCc1ccc(N2CC3(CC(c4ccnn4C)C3)C2)cc1 [Compound 158] | 101.95 | 398 | 
CCc1nn2ccccc2c1C(=O)NCc1ccc(C2CC3(C2)CN(c2ccc(S(F)(F)(F)(F)F)cc2)C3)cc1 [Compound 159] | 177.08 | 39.8 | 
Cc1nn2ccccc2c1C(=O)NCc1ccc(C2CC3(C2)CN(c2ccc(S(F)(F)(F)(F)F)cc2)C3)cc1 [Compound 160] | 166.29 | 31.6 | 
CCc1nn2ccccc2c1C(=O)NCc1ccc(N2CC3(CC(c4ccc(OC(F)(F)F)cc4)C3)C2)cc1 [Compound 161] | 126.57 | 2510 | 
Cc1nn2ccccc2c1C(=O)NCc1ccc(N2CC3(C2)CN(c2ccc(S(F)(F)(F)(F)F)cc2)C3)cc1 [Compound 162] | 238.06 | 7940 | 
CCc1nc2ccc(Cl)cn2c1C(=O)NCc1ccc(N2CC3(CCC3)C2)cc1 [Compound 163] | 142.39 | 7940 | 
CCc1nc2ccc(Cl)cn2c1C(=O)NCC1CC2(C1)CN(c1ccc(OC(F)(F)F)cc1)C2 [Compound 164] | 165.12 | 7940 | 
CCc1nn2ccccc2c1C(=O)NCC1CC2(C1)CN(c1ccc(OC(F)(F)F)cc1)C2 [Compound 165] | 150.69 | 7940 | 
CCc1nc2ccc(Cl)cn2c1C(=O)NCc1ccc(N2CCC(c3ccc(OC(F)(F)F)cc3)CC2)cc1 [Compound Q203, Q203] |  |  | activity against replicating and non-replicating bacteria [3]: highly active; MIC50 [4]: 0.28 nM (≈ 0.156 ng/mL)
